For 34 compounds, EC50 results are on record in patent US20220409593A1 (ARKUDA THERAPEUTICS, priority 2019, published 2022).

Some results are limits rather than exact numbers.

This assay has as its system secreted mouse PGRN. Kind of assay: progranulin induction cellular assay (PGRN assay, ELISA-based readout). The conditions noted are these: Mus musculus, progranulin secreted into cell culture medium, cells named in method: mouse primary microglia, primary cortical neurons, BV-2. The protocol: Cellular Assays: To measure the efficacy of compounds, a progranulin induction cellular assay in mouse primary microglia (pMG), primary cortical neurons, and BV-2 cell lines is used. BV-2 cells are split the day before plating into a 96well plate format at approximately 80%. Cells should be plated the day before and allowed for 1 hour attachment period and for 16 hour incubation. Levels of progranulin secreted into the cell culture medium or retained in the cell lysate can be quantified using an ELISA-based readout and measurement of secreted mouse PGRN in the medium was assessed by the methodology published by Ghidoni et al. 2012. Standard ELISA kits to measure PGRN are available from vendors such as Adipogen, R&D, and Biovendor.
Table D below presents the results of a PGRN assay as described above.
(In an ELISA, binding on a coated surface is turned into a signal by an enzyme label.)
As to `Fc1ccc([C@H]2c3ccccc3CCN2C2=NC[C@H](C34CCN(CC3)CC4)O2)cc1` [Compound 3047, 2-((S)-1-(4-fluorophenyl)-3,4-dihydroisoquinolin-2(1H)-yl)-5-(quinuclidin-4-yl)-4,5-dihydrooxazole], the EC50 (commonly the concentration giving half of the maximal effect) was above 10 µM.

On to `CN1CCC[C@]2(CN=C(N3CCc4ccccc4[C@H]3c3ccc(F)c(F)c3)O2)C1` (stereo in doubt) [Compound 3031], for which the EC50 was determined as 4.31 µM.

Consider `CN1CCC[C@@]2(CN=C(N3CCc4ccccc4[C@H]3c3cc(F)c(F)c(F)c3)O2)C1` (single isomer, unassigned) [Compound 3005], for which the EC50 is above 10 µM.

For `CN1CCC[C@@]2(CN=C(N3CCc4ccccc4[C@@H]3c3ccc(F)c(F)c3)O2)C1` (stereo in doubt) [Compound 3030], the EC50 turned out to be 9.65 µM.

In the case of `Fc1ccc([C@H]2c3ccccc3CCN2C2=NC[C@@]3(CCN(CCC(F)(F)F)C3)O2)cc1` [Compound 3174, (S)-2-((S)-1-(4-fluorophenyl)-3,4-dihydroisoquinolin-2(1H)-yl)-7-(3,3,3-trifluoropropyl)-1-oxa-3,7-diazaspiro[4.4]non-2-ene], it took 1.38 µM to reach a half-maximal effect (EC50).

`Fc1ccc([C@H]2c3ccccc3CCN2C2=NC[C@@]3(CN4CCC3CC4)O2)c(F)c1` (single isomer, unassigned) [Compound 3016]: the EC50 is 0.86 µM.

Consider `CN1CCC[C@H]([C@H]2CN=C(N3CCc4ccccc4[C@@H]3c3ccc(F)cc3)O2)C1` (single isomer, unassigned) [Compound 3153], for which it took 0.94 µM to reach a half-maximal effect (EC50).

The compound `CN1CCC[C@]2(CN=C(N3CCc4ccccc4[C@@H]3c3cc(F)cc(F)c3)O2)C1` (single isomer, unassigned) [Compound 3010] gave a concentration giving a half-maximal response (EC50) of 6.39 µM.

For `Fc1ccc([C@H]2c3ccccc3CCN2C2=N[C@@]3(CO2)CN2CCC3CC2)cc1` (single isomer, unassigned) [Compound 3057B], a half-maximal effect (EC50) was put at 0.126 µM.

Turning to `CN1CCC[C@@]2(CN=C(N3CCc4ccccc4[C@H]3c3cc(F)cc(F)c3)O2)C1` (single isomer, unassigned) [Compound 3013], a half-maximal response (EC50) required 1.59 µM.

In turn, `OCCCN1CC[C@@]2(CN=C(N3CCc4ccccc4[C@@H]3c3ccc(F)cc3)O2)C1` [Compound 3176, 3-((S)-2-((S)-1-(4-fluorophenyl)-3,4-dihydroisoquinolin-2(1H)-yl)-1-oxa-3,7-diazaspiro[4.4]non-2-en-7-yl)propan-1-ol] came in with an EC50 of 0.318 µM.

Turning to `O[C@H]1CNC[C@@]12CN=C(N1CCc3ccccc3[C@@H]1c1ccc(F)cc1)O2` [Compound 3178, (5R,9S)-2-((S)-1-(4-fluorophenyl)-3,4-dihydroisoquinolin-2(1H)-yl)-1-oxa-3,7-diazaspiro[4.4]non-2-en-9-ol], a half-maximal response (EC50) required 0.249 µM. This EC50 and that of the compound before are within 1.5-fold of each other.

In turn, `CN1CCC[C@@]2(CN=C(N3CCc4ccccc4[C@@H]3c3cc(F)cc(F)c3)O2)C1` (single isomer, unassigned) [Compound 3011] gave an EC50 of 7.64 µM. This EC50 is about 31-fold higher than that of the compound before.

Compound `CN1CCC[C@@H]([C@@H]2CN=C(N3CCc4ccccc4[C@@H]3c3ccc(F)cc3)O2)C1` (single isomer, unassigned) [Compound 3150] returned an EC50 of 0.266 µM. Compared with the last compound, the EC50 is about 29-fold lower.

In the case of `N[C@H]1C[C@@]2(CN=C(N3CCc4ccccc4[C@@H]3c3ccc(F)cc3)O2)C1` [Compound 3061, (S)-6-(1-(4-fluorophenyl)-3,4-dihydroisoquinolin-2(1H)-yl)-5-oxa-7-azaspiro[3.4]oct-6-en-2-amine], a half-maximal response (EC50) required 0.115 µM.

`Fc1ccc([C@H]2c3ccccc3CCN2C2=N[C@H](C3CCNCC3)CO2)cc1` (single isomer, unassigned) [Compound 3134] gave an EC50 of 0.312 µM.

Take `Fc1ccc([C@H]2c3ccccc3CCN2C2=N[C@@]3(CCCNC3)CO2)cc1` (single isomer, unassigned) [Compound 3054]: it took 0.11 µM to reach a half-maximal effect (EC50).

As for `Fc1cccc([C@H]2c3ccccc3CCN2C2=NC[C@]3(CN4CCC3CC4)O2)c1F` (single isomer, unassigned) [Compound 3019], the EC50 worked out at 0.3 µM.

For `Fc1ccc([C@H]2c3ccccc3CCN2C2=NC[C@@H](C3CNC3)O2)cc1` (single isomer, unassigned) [Compound 3070], the EC50 came out at 0.0966 µM.

Regarding `Fc1ccc([C@H]2c3ccccc3CCN2C2=N[C@H]([C@@H]3CCNC3)CO2)cc1` (single isomer, unassigned) [Compound 3071], the EC50 amounted to 0.429 µM.

In turn, `c1ccc([C@H]2c3ccccc3CCN2C2=NC[C@]3(CN4CCC3CC4)O2)cc1` (single isomer, unassigned) [Compound 3040] showed an EC50 of 1.13 µM.

The compound `CN1CC[C@@]2(CN=C(N3CCc4ccccc4[C@@H]3c3ccc(F)cc3)O2)C1` [Compound 3167, (S)-2-((S)-1-(4-fluorophenyl)-3,4-dihydroisoquinolin-2(1H)-yl)-7-methyl-1-oxa-3,7-diazaspiro[4.4]non-2-ene] showed an EC50 of 0.176 µM. This EC50 lies about 6.4-fold lower than the previous one.

In the case of `CN1CCC2(CC1)CN=C(N1CCc3ccccc3[C@@H]1c1ccc(F)cc1)O2` [Compound 3059, (S)-2-(1-(4-fluorophenyl)-3,4-dihydroisoquinolin-2(1H)-yl)-8-methyl-1-oxa-3,8-diazaspiro[4.5]dec-2-ene], the EC50 came out at 0.11 µM.

Turning to `Fc1ccc([C@H]2c3ccccc3CCN2C2=N[C@@H](C3(F)CNC3)CO2)cc1` (single isomer, unassigned) [Compound 3156], the EC50 was 0.0998 µM.

In the case of `Fc1ccc([C@H]2c3ccccc3CCN2C2=NC[C@]3(CN4CCC3CC4)O2)cc1` (single isomer, unassigned) [Compound 3000], the EC50 was 0.25 µM. Compared with the last compound, the EC50 is about 2.5-fold higher.

The compound `Fc1ccc([C@H]2c3ccccc3CCN2C2=NC[C@H]([C@@H]3CCCNC3)O2)cc1` (single isomer, unassigned) [Compound 3075] came in with an EC50 of 0.222 µM.

For the compound `Fc1ccc([C@H]2c3ccccc3CCN2C2=NC[C@@H](C3(F)CNC3)O2)cc1` (single isomer, unassigned) [Compound 3154], the EC50 was found to be 0.132 µM. This EC50 lies about 1.7-fold lower than the previous one.

Compound `N[C@H]1CC[C@@]2(CN=C(N3CCc4ccccc4[C@@H]3c3ccc(F)cc3)O2)C1` (single isomer, unassigned) [Compound 3080] came in with an EC50 of 0.11 µM. This EC50 and that of the compound before are within 1.5-fold of each other.

For the compound `NC[C@H]1C[C@@]2(CN=C(N3CCc4ccccc4[C@@H]3c3ccc(F)cc3)O2)C1` (single isomer, unassigned) [Compound 3160], the EC50 was 0.993 µM.

The compound `CN(C)[C@H]1C[C@]2(CN=C(N3CCc4ccccc4[C@@H]3c3ccc(F)cc3)O2)C1` (single isomer, unassigned) [Compound 3158] registered an EC50 of 3.58 µM.

In turn, `Fc1cccc([C@H]2c3ccccc3CCN2C2=NC[C@]3(CN4CCC3CC4)O2)c1` (stereo in doubt) [Compound 3021] returned an EC50 above 10 µM.

Compound `CN1CCC[C@H]([C@@H]2CN=C(N3CCc4ccccc4[C@@H]3c3ccc(F)cc3)O2)C1` (single isomer, unassigned) [Compound 3152] yielded an EC50 of 0.406 µM.

The compound `Fc1ccc([C@H]2c3ccccc3CCN2C2=N[C@H]([C@H]3CCNC3)CO2)cc1` (single isomer, unassigned) [Compound 3072] returned an EC50 of 0.33 µM.

`CN1CCCC2(CN=C(N3CCc4ccccc4[C@@H]3c3cccc(F)c3F)O2)C1` (mixture of isomers) [Compound 3042]: a half-maximal effect (EC50) was put at 1.03 µM.
